According to US20250282776A1, “Bicyclic TLR7 Agonists and Uses Thereof” (Bristol-Myers Squibb Company, priority 2024, published 2025):

Experiments:
[1] = target: T1, human TLR7 (hTLR7) (Homo sapiens, UniProt Q9NYK1); experiment: Human TLR7 agonist activity assay (HEK-Blue TLR7 SEAP reporter); assay type: cell-based; details: HEK-Blue TLR7 cells, 18 h incubation, Quanti-Blue, OD 620 nm, some values average of multiple measurements
T1 construct: host or cells: HEK-Blue TLR7 cells (engineered human embryonic kidney cells)
T1 sequence (Q9NYK1 27-1049): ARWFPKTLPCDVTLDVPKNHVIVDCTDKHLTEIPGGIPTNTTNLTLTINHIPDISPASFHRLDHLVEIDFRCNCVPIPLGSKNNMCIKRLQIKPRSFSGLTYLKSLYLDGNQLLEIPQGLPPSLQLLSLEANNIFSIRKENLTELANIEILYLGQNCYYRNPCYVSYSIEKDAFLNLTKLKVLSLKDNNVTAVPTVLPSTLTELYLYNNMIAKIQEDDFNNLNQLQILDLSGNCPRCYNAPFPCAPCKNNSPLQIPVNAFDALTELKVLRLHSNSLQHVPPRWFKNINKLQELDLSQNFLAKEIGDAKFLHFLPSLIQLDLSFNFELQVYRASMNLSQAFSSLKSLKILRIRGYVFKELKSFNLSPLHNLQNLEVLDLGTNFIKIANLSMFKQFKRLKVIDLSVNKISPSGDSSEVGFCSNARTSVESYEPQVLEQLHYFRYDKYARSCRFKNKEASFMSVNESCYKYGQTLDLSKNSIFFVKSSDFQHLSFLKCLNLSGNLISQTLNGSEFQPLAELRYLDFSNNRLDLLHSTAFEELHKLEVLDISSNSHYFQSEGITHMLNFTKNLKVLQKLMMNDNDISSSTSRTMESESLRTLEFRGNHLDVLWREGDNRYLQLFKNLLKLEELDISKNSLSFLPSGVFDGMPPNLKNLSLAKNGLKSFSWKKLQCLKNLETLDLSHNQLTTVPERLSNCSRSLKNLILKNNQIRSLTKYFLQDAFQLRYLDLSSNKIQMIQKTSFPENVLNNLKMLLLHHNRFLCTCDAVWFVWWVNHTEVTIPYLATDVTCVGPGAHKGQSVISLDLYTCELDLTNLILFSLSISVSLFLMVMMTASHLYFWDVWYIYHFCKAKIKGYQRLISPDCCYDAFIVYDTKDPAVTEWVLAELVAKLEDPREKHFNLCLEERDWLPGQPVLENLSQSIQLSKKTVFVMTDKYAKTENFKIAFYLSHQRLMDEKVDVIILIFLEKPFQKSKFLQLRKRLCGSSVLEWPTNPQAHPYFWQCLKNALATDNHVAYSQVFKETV
How it was run: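 HEK-Blue TLR7 cells seeded 16-18 h, then exposed to compound for 18 h at 37 °C, 5% CO2. Secreted SEAP read with Quanti-Blue at OD 620 nm after 30 min. EC50 taken as concentration giving half-maximal response between baseline and maximum; some values averaged over repeats.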

[2] = target: T2, human TLR8 (hTLR8) (Homo sapiens, UniProt Q9NR97); experiment: Human TLR8 agonist activity assay (measured in a similar manner); assay type: cell-based; details: HEK-Blue TLR cells, SEAP reporter, measured in a similar manner to TLR7; some values average of multiple measurements
T2 construct: expressed in transfected cells
T2 sequence (Q9NR97 27-1041): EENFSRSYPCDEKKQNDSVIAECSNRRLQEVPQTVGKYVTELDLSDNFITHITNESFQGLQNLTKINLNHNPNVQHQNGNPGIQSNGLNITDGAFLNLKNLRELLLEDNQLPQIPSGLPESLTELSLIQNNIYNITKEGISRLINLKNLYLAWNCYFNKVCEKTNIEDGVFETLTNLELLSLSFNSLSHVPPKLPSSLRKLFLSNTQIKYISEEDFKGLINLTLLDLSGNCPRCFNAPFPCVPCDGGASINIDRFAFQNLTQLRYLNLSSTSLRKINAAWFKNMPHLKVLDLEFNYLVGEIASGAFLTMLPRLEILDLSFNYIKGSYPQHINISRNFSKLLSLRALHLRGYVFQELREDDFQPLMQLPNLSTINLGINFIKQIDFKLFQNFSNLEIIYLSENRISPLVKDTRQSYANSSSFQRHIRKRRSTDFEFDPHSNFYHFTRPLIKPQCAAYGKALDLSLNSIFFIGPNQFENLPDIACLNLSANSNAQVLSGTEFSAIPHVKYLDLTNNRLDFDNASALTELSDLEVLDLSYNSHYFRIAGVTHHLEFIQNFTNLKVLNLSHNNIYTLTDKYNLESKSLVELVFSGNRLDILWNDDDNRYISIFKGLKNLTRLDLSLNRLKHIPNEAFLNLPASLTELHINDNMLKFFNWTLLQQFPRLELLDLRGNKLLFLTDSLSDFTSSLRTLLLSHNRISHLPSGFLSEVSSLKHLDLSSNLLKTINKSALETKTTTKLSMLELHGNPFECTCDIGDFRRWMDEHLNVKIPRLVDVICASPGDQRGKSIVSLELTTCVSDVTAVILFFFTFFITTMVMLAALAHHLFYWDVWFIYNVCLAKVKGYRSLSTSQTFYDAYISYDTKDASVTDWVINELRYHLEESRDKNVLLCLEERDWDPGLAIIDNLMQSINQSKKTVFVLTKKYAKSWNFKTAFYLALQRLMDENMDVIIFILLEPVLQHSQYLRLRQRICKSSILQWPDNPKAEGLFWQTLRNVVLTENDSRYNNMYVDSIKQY
How it was run: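 Compounds were added to HEK-Blue TLR8 reporter cells, pre-incubated 16-18 h, then treated 18 h at 37° C, 5% CO2. SEAP output was measured with Quanti-Blue (30 min) at OD 620 nm. Some values are averages of multiple measurements.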

SMILES	EC50 [1] [µM]	EC50 [2] [µM]
CCCCN(CCO)c1nc(N)nc2cn(Cc3ccc(CNC4CCC4)cc3C(F)F)nc12 [Compound 98]	1.56	1.15
CCCCN(CCO)c1nc(N)nc2cn(Cc3ccc(CN[C@H]4CCOC4)cc3C(F)F)nc12 [Compound 99]	1.91	1.58
CCCCN(CCO)c1nc(N)nc2cn(Cc3ccc(CNC4CCOCC4)cc3C(F)F)nc12 [Compound 100]	1.76	1.42
CCCCN(CCO)c1nc(N)nc2cn(Cc3ccc(CN[C@H]4C[C@H](OCC)C4)cc3OC)nc12 [Compound 101]	1.6	1.57
CCCCN(CCO)c1nc(N)nc2cn(Cc3ccc(CNC4CCC4)cc3NC)nc12 [Compound 102]	2.19	1.8
CCCCN(CCO)c1nc(N)nc2cn(Cc3ccc(CNC4CCCOC4)cc3OC)nc12 (centres unmarked) [Compound 104]	1.75	2.16
CCCCN(CCO)c1nc(N)nc2cn(Cc3ccc(CNC4CCCOC4)cc3OC)nc12 (centres unmarked) [Compound 105]	1.82	2.78
CCCCN(CCO)c1nc(N)nc2cn(Cc3cc(OC)c(C4CCN(CC(C)(C)O)CC4)cc3OC)nc12 [Compound 107]	1.28	3.03
CCCCN(CCO)c1nc(N)nc2cn(Cc3cc(OC)c(C4CCN(C5CC6(COC6)C5)CC4)cc3OC)nc12 [Compound 109]	1.46	1.99
CCCCN(CCO)c1nc(N)nc2cn(Cc3c(F)cc(CN[C@H]4C[C@@H](OC)C4)cc3F)nc12 [Compound 118]	1.58	2.5
CCCCN(CCO)c1nc(N)nc2cn(Cc3ccc(CNC4CCOC(C)C4)cc3OC)nc12 (centres unmarked) [Compound 125]	2.25	2.03
CCCCNCc1ccc(Cn2cc3nc(N)nc(N(CCO)CCCC)c3n2)c(C(F)F)c1 [Compound 127]	1.8	2.42
CCCCN(CCO)c1nc(N)nc2cn(Cc3ccc(CNCC4CCC4)cc3C(F)F)nc12 [Compound 130]	1.9	1.88
CCCCN(CCO)c1nc(N)nc2cn(Cc3ccc(CN[C@H]4CC[C@H](CO)CC4)cc3C(F)F)nc12 [Compound 131]	1.28	3.33
CCCCN(CCO)c1nc(N)nc2cn(Cc3cccc4c3OCCN4C(=O)CNC3CCC3)nc12 [Compound 134]	2.24	1.86
CCCCN(CCO)c1nc(N)nc2cn(Cc3ccc(CN[C@H]4C[C@H](OC)C4)c4c3OCCC4)nc12 [Compound 138]	1.41	0.608
CCCCN(CCO)c1nc(N)nc2cn(Cc3ccc(CN[C@H]4CCOC[C@H]4C)cc3OC)nc12 [Compound 139]	1.22	0.542
CCCCN(CCO)c1nc(N)nc2cn(Cc3ccc(CN[C@@H]4CCOC4)c4oc(C)nc34)nc12 [Compound 142]	1.63	0.915
CCCCN(CCO)c1nc(N)nc2cn(Cc3c(OC)cc(CNCCOC)cc3OC)nc12 [Compound 143]	1.7	1.87

Results, then the compound that gave them:

EC50 [1] [µM]	EC50 [2] [µM]	SMILES
1.05	1.05	CCCCN(CCO)c1nc(N)nc2cn(Cc3ccc(CN4CCCC4)cc3C(F)F)nc12 [Compound 97]
1.14	2.5	CCCCN(CCO)c1nc(N)nc2cn(Cc3cc(OC)c(C4CCN(CCOC)CC4)cc3OC)nc12 [Compound 106]
1.16	1.88	CCCCN(CCO)c1nc(N)nc2cn(Cc3cc(OC)c(C4CCN(C5CCOCC5)CC4)cc3OC)nc12 [Compound 108]
0.039	0.702	CCCCN(CCO)c1nc(N)nc2cn(Cc3cc(OC)c(C4CCN(C(C)C)CC4)cc3OC)nc12 [Compound 110]
0.937	2.96	CCCCN(CCO)c1nc(N)nc2cn(Cc3c(F)cc(CNCCO)cc3F)nc12 [Compound 113]
1.06	1.83	CCCCN(CCO)c1nc(N)nc2cn(Cc3c(F)cc(CNCCOC)cc3F)nc12 [Compound 114]
0.108	1.5	CCCCN(CCO)c1nc(N)nc2cn(Cc3c(F)cc(CNC4CCOCC4)cc3F)nc12 [Compound 115]
0.031	1.02	CCCCN(CCO)c1nc(N)nc2cn(Cc3c(F)cc(CN[C@@H]4CCOC4)cc3F)nc12 [Compound 116]
1.19	1.97	CCCCN(CCO)c1nc(N)nc2cn(Cc3c(F)cc(CN[C@H]4C[C@H](O)C4)cc3F)nc12 [Compound 117]
0.136	1.96	CCCCN(CCO)c1nc(N)nc2cn(Cc3c(F)cc(CN[C@H]4C[C@H](OC)C4)cc3F)nc12 [Compound 119]
1.19	0.628	CCCCN(CCO)c1nc(N)nc2cn(Cc3ccc(CNC(C)(C)C)cc3C(F)F)nc12 [Compound 128]
0.389	1.86	CCCCN(CCO)c1nc(N)nc2cn(Cc3c(F)cc(N4CCC(N[C@@H]5CCCOC5)CC4)cc3F)nc12 [Compound 132]
0.513	2.1	CCCCN(CCO)c1nc(N)nc2cn(Cc3c(F)cc(N4CCC(NC5CC6(COC6)C5)CC4)cc3F)nc12 [Compound 133]
1.14	0.491	CCCCN(CCO)c1nc(N)nc2cn(Cc3ccc(CN[C@@H]4CCOC4)c4c3OCCC4)nc12 [Compound 135]
0.861	0.36	CCCCN(CCO)c1nc(N)nc2cn(Cc3ccc(CN[C@H]4CCOC4)c4c3OCCC4)nc12 [Compound 136, (S)-2-((5-Amino-2-((5-(((tetrahydrofuran-3-yl)amino)methyl)chroman-8-yl)methyl)-2H-pyrazolo[4,3-d]pyrimidin-7-yl)(butyl)amino) ethan-1-ol]
1.05	0.4	CCCCN(CCO)c1nc(N)nc2cn(Cc3ccc(CNC4CCOCC4)c4c3OCCC4)nc12 [Compound 137]
0.993	0.674	CCCCN(CCO)c1nc(N)nc2cn(Cc3ccc(CNC4CCC4)c4oc(C)nc34)nc12 [Compound 140, 2-((5-Amino-2-((7-((cyclobutylamino)methyl)-2-methylbenzo[d]oxazol-4-yl)methyl)-2H-pyrazolo-[4,3-d]pyrimidin-7-yl) (butyl)amino) ethan-1-ol]
0.439	0.421	CCCCN(CCO)c1nc(N)nc2cn(Cc3ccc(CN[C@H]4C[C@H](OC)C4)c4oc(C)nc34)nc12 [Compound 141, 2-((5-amino-2-((7-((((1r,3r)-3-methoxycyclobutyl)amino)methyl)-2-methylbenzo[d]oxazol-4-yl)methyl)-2H-pyrazolo[4,3-d]pyrimidin-7-yl)(butyl)amino)ethan-1-ol]
